# Like-named read-outs stand apart in the source and are kept apart here.
# Key:
# mice = test system: mice; set-up: method as in PMID 32943547; details: cited from earlier work
# [1] = Plasma pharmacokinetics after single and repeat oral dose, LC-MS/MS, non-compartmental analysis; type: in vivo, Beagle dogs; details: for Sapanisertib accumulation with repeat dosing: 0.1 mg/kg p.o. QOD; for Cmax: read-out: CMAX (sapanisertib in plasma)
# Description: Laboratory Beagle dogs (Charles River Labs, Mattawan, MI) served as surrogates in testing compounds proposed for application in canine clinical cancer care. The animals were at least six months old and weighed 6.4–8.8 kg at the initiation of study. They had routine veterinary care and had not been used in any previous studies. The study was conducted in AAALAC-accredited animal facilities [Charles River Laboratories, Inc., Mattawan, MI; NIH Office of Laboratory Animal Welfare Assurance approval (https://olaw.nih.gov/assured/app/index.html)], under review, monitoring, and approval of the facility's Institutional Animal Care and Use Committee according to U.S. Public Health Service national guidelines and regulations for the care and use of laboratory animals. The study was not designed to incorporate Good Laboratory Practices (GLP) regulatory criteria. Animals on study were monitored daily or more frequently and body weights were recorded, while periodic specimens were obtained for laboratory analyses. Clinical pathology analyses were included for hematology, serum chemistry, coagulation, urinalysis, and chemical bioanalysis was accomplished for pharmacokinetics (PK) (Table 1, repeat dose study) (Charles River Laboratories, Mattawan, MI).
# Six male and six female beagle dogs were enrolled in a parallel, three-arm, fixed, repeat oral-dose study. […] In Group 2, two male (23001, 23002) and two female (23501, 23502) dogs were given sapanisertib alone (0.1 mg/kg) every other day (p.o., QOD). […] All dogs were dosed on study day 1 to obtain single dose PK samples, and then dosed serially days 4–20. Dogs were fasted overnight prior to dosing and fed ad libitum 2 h (hrs) following dose administration.
# Plasma samples for PK were collected at pre-dose (-7 days), then beginning day 1 following the initial dose of each study group at 1, 2, 4, 8, 24, 48, and 72 h. On day 6, plasma samples were collected pre-dose, then 1, 2, 4, 8, and 24 h post-dose. On days 10 and 15, a 2-h post-dose sample was collected. On day 20, plasma samples were drawn at pre-dose and 1, 2, 4, 8, 24, 48, and 72 h post-dose. Treatment schedule and clinical pathology specimen sampling intervals are outlined in Table 1.
# Each 50 μL aliquot of known concentration standards, quality control sample, or study sample was mixed with 200 μL of working internal standard solution (10 ng/mL in acetonitrile). The samples were vortexed and centrifuged. A 150 μL aliquot of the resulting supernatant was transferred to a clean 96-well plate, evaporated, and reconstituted with 100 μL of water/acetonitrile (40/60, v/v). An aliquot was injected onto an LC-MS/MS XBridge BEH C18 liquid chromatography system (Waters Associates, Framingham, MA) having 50 x 2.1 mm (2.5 μm particle size) column with an isocratic flow consisting of water/formic acid (100/0.1, v/v) and acetonitrile/formic acid (100/0.1, v/v) at a flow rate of 0.3000 mL/min for analysis. The analyte and internal standard were detected using an API 6500+ triple quadrupole LC-MS/MS system (AB Sciex, LLC, Framingham, MA) equipped with an ESI (TurboIonSpray®) ionization source operated in the positive ion mode.
# A non-compartmental approach to PK analysis was employed using Phoenix WinNonlin v8.3 (Certara Corp, Cary, NC) that was validated per FDA 21CFR Part 11 regulations. The maximum plasma concentration (CMAX) and the time of maximum plasma concentration (TMAX) were recorded as observed values. […] AUCINF (the AUC from time zero to infinity) was calculated by extrapolation by dividing CLAST (the last measurable drug concentration) by the rate constant of the terminal phase, λZ. This constant was determined from the slope of the terminal phase of the concentration-time curve using uniformly-weighted least-squares as the estimation procedure and acceptance criteria of (i) adjusted r^2 > 0.8, (ii) includes > 3 time points in the terminal phase occurring after the TMAX. […]
# [2] = First dose (Day 1), sapanisertib 0.1 mg/kg p.o., mean (%CV), n = 4
# [3] = canine sapanisertib only group 0.1 mg/kg versus human cancer patients receiving 4 mg oral sapanisertib
structure (smiles),measurement,setting,value
CC(C)n1nc(-c2ccc3oc(N)nc3c2)c2c(N)ncnc21 [Sapanisertib],"Kidney findings in mice, every other day dosing","mice; mice, […] sapanisertib every other day",did not exhibit substantive AKI
same,"Kidney findings in mice, daily dosing",mice; some mice given […] sapanisertib daily,acute kidney injury (AKI) with moderate histopathological cortical tubular epithelial degeneration and necrosis
same,Sapanisertib accumulation with repeat dosing,[1]; day 1 to day 20,did not display accumulation
same,Sapanisertib accumulation with repeat dosing,"[1]; day 1 to day 20, listed as sapanisertib",not observed to significantly accumulate
same,AUCINF (sapanisertib in plasma),[1]; [2],247.5 (41%) hr^*ng/mL
same,V/F (sapanisertib),[1]; [2],3.85 (34%) L/kg
same,V/F (sapanisertib),"[1]; Steady-state (Day 20), sapanisertib 0.1 mg/kg p.o. QOD, mean (%CV), n = 4",3.97 (33%) L/kg
same,Sapanisertib plasma level at day 15,"[1]; approximately 24 h from the previous dose, Groups 2,3",minimal detectable
same,half-life,"[1]; both sexes, beagle, dog, plasma, po, 0.1 mg/kg, 0.1 mg/kg p.o., day 1 to day 20, read-out: Sapanisertib half-life (range)",4.8 to 6.8 h
same,AUC(0-inf),"[1]; both sexes, beagle, dog, plasma, po, 0.1 mg/kg, First dose (Day 1), sapanisertib 0.1 mg/kg p.o., mean (%CV), n = 4, read-out: AUCINF (sapanisertib in plasma)",248 ng·h/mL
same,half-life,"[1]; both sexes, beagle, dog, plasma, po, 0.1 mg/kg, First dose (Day 1), sapanisertib 0.1 mg/kg p.o., mean (%CV), n = 4, read-out: T1/2 (sapanisertib in plasma) (converted)",5.94 h
same,Tmax,"[1]; both sexes, beagle, dog, plasma, po, 0.1 mg/kg, First dose (Day 1), sapanisertib 0.1 mg/kg p.o., median (range), n = 4, read-out: TMAX (sapanisertib in plasma)",2 h
same,Cmax,"[1]; both sexes, beagle, dog, plasma, po, 0.1 mg/kg, Steady-state (Day 6), sapanisertib 0.1 mg/kg p.o. QOD, mean (%CV), n = 4",28.1 ng/mL
same,Cmax,"[1]; both sexes, beagle, dog, plasma, po, 0.1 mg/kg, Steady-state (Day 10), sapanisertib 0.1 mg/kg p.o. QOD, mean (%CV), n = 4",23.6 ng/mL
same,AUC,"[1]; both sexes, beagle, dog, plasma, po, 0.1 mg/kg, Steady-state (Day 20), sapanisertib 0.1 mg/kg p.o. QOD, mean (%CV), n = 4, read-out: AUCTAU (sapanisertib in plasma)",250 ng·h/mL
same,Cmax,"[1]; both sexes, beagle, dog, plasma, po, 0.1 mg/kg, Steady-state (Day 20), sapanisertib 0.1 mg/kg p.o. QOD, mean (%CV), n = 4",27.4 ng/mL
same,half-life,"[1]; both sexes, beagle, dog, plasma, po, 0.1 mg/kg, Steady-state (Day 20), sapanisertib 0.1 mg/kg p.o. QOD, mean (%CV), n = 4, read-out: T1/2 (sapanisertib in plasma) (converted)",6.28 h
same,Tmax,"[1]; both sexes, beagle, dog, plasma, po, 0.1 mg/kg, Steady-state (Day 20), sapanisertib 0.1 mg/kg p.o. QOD, median (range), n = 4, read-out: TMAX (sapanisertib in plasma)",2 h
same,Tmax,"[1]; both sexes, beagle, dog, plasma, po, 0.1 mg/kg, dogs, 0.1 mg/kg p.o., read-out: Sapanisertib Tmax on average",2 h
same,CL/F,"[1]; both sexes, beagle, dog, plasma, po, First dose (Day 1), sapanisertib 0.1 mg/kg p.o., mean (%CV), n = 4",7.83 mL/min/kg
same,Cmax,"[1]; both, beagle, dog, plasma, po, 0.1 mg/kg, First dose (Day 1), sapanisertib 0.1 mg/kg p.o., alone or with trametinib […] (see label), arithmetic mean (%CV), n = 4",26.3 ng/mL
same,"Mean animal to human exposure ratio, AUCINF",[1]; [3],1.31
same,"Mean animal to human exposure ratio, CMAX",[1]; [3],1.11
same,"Mean animal to human exposure ratio, T1/2",[1]; [3],0.91
same,Sapanisertib absorption time (range),"[1]; initial and repeat dose, 0.1 mg/kg p.o.",1 to 4 h

# Reference: paper PMC9794608 (Frontiers in Veterinary Science, 2022)
